{"source": "PubChem BioAssay AID256", "about": "(DTP/NCI, 2004)", "system": "CD2F1 mice, L1210 leukemia ip, survival T/C", "experiment": "NCI In Vivo Anticancer Drug Screen. Data for tumor model L1210 Leukemia (intraperitoneal) in CD2F1 (CDF1) mice", "conditions": "endpoint: mean survival time, higher = longer survival", "in_short": "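Ratio T/C, where T is the treated-group value and C the vehicle-dosed control value, from mice implanted with a transplantable tumor.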", "key": {"[1]": {"conditions": "dose: 100.0 mg/kg/injection, schedule: Q04DX003 (ip), vehicle: saline with Tween-80"}, "[2]": {"conditions": "dose: 200.0 mg/kg/injection, schedule: Q04DX003 (ip), vehicle: saline with Tween-80"}, "[3]": {"conditions": "dose: 400.0 mg/kg/injection, schedule: Q04DX003 (ip), vehicle: saline with Tween-80"}, "[4]": {"conditions": "dose: 100.0 mg/kg/injection, schedule: Q01DX001 (ip), vehicle: saline"}, "[5]": {"conditions": "dose: 200.0 mg/kg/injection, schedule: Q01DX001 (ip), vehicle: saline"}, "[6]": {"conditions": "dose: 400.0 mg/kg/injection, schedule: Q01DX001 (ip), vehicle: saline"}, "[7]": {"conditions": "dose: 100.0 mg/kg/injection, schedule: Q04DX002 (ip), vehicle: saline with Tween-80"}, "[8]": {"conditions": "dose: 200.0 mg/kg/injection, schedule: Q04DX002 (ip), vehicle: saline with Tween-80"}, "[9]": {"conditions": "dose: 100.0 mg/kg/injection, schedule: Q01DX009 (ip), vehicle: saline with Tween-80"}, "[10]": {"conditions": "dose: 200.0 mg/kg/injection, schedule: Q01DX009 (ip), vehicle: saline with Tween-80"}, "[11]": {"conditions": "dose: 400.0 mg/kg/injection, schedule: Q04DX002 (ip), vehicle: saline with Tween-80"}}, "note": "Several values for one entry are separate records, joined by “and”; a condition that tells them apart may be missing. Equal entries are not always repeated. Inconclusive results and toxic doses are left out. Non-standard residues stand in square brackets, D forms with d. Residues, ends and D or L forms follow the SMILES beside them. ξ: configuration not given here. ξF = NC(Cc1ccccc1)C(=O)O"}
{"compound": "c1cc2c3c(c1)-c1nc4ccccc4cc1CN3CCC2", "values": [{"measurement": "T/C", "setting": "[1]", "value": "98 % of control"}, {"measurement": "T/C", "setting": "[2]", "value": "101 % of control"}, {"measurement": "T/C", "setting": "[3]", "value": "97 % of control"}]}
{"compound": "CC1(O)CS(=O)(=O)CC1O", "note": "(configuration not stated)", "values": [{"measurement": "T/C", "setting": "[4]", "value": "105 % of control"}, {"measurement": "T/C", "setting": "[5]", "value": "103 % of control"}, {"measurement": "T/C", "setting": "[6]", "value": "101 % of control"}]}
{"compound": "CN(C)c1ccccc1C1=CCCCC1", "values": [{"measurement": "T/C", "setting": "dose: 50.0 mg/kg/injection, schedule: Q04DX003 (ip), vehicle: saline", "value": "96 % of control"}, {"measurement": "T/C", "setting": "dose: 100.0 mg/kg/injection, schedule: Q04DX003 (ip), vehicle: saline", "value": "98 % of control"}, {"measurement": "T/C", "setting": "dose: 200.0 mg/kg/injection, schedule: Q04DX003 (ip), vehicle: saline", "value": "104 % of control"}]}
{"compound": "CCCCCCCCCCCCCC1CCCC(C)N1", "note": "(configuration not stated)", "values": [{"measurement": "T/C", "setting": "dose: 50.0 mg/kg/injection, schedule: Q04DX002 (ip), vehicle: saline with Tween-80", "value": "89 % of control and 94 % of control"}, {"measurement": "T/C", "setting": "[7]", "value": "93 % of control and 94 % of control"}, {"measurement": "T/C", "setting": "[8]", "value": "101 % of control"}]}
{"compound": "CN(C)N=Nc1ccccc1C(=O)NNC(=O)CC#N", "values": [{"measurement": "T/C", "setting": "dose: 18.75 mg/kg/injection, schedule: Q01DX009 (ip), vehicle: Klucel (hydroxypropylcellulose) (HPC)", "value": "88 % of control and 97 % of control"}, {"measurement": "T/C", "setting": "dose: 37.5 mg/kg/injection, schedule: Q01DX009 (ip), vehicle: Klucel (hydroxypropylcellulose) (HPC)", "value": "92 % of control and 100 % of control"}, {"measurement": "T/C", "setting": "dose: 75.0 mg/kg/injection, schedule: Q01DX009 (ip), vehicle: Klucel (hydroxypropylcellulose) (HPC)", "value": "93 % of control and 111 % of control"}, {"measurement": "T/C", "setting": "dose: 150.0 mg/kg/injection, schedule: Q01DX009 (ip), vehicle: Klucel (hydroxypropylcellulose) (HPC)", "value": "113 % of control and 102 % of control"}, {"measurement": "T/C", "setting": "dose: 300.0 mg/kg/injection, schedule: Q01DX009 (ip), vehicle: Klucel (hydroxypropylcellulose) (HPC)", "value": "120 % of control and 111 % of control"}]}
{"compound": "N#Cc1cnoc1N", "values": [{"measurement": "T/C", "setting": "[9]", "value": "112 % of control"}, {"measurement": "T/C", "setting": "[10]", "value": "114 % of control"}, {"measurement": "T/C", "setting": "dose: 400.0 mg/kg/injection, schedule: Q01DX009 (ip), vehicle: saline with Tween-80", "value": "109 % of control"}]}
{"compound": "N/C(=N/O)c1cn(C2OC(CO)C(O)C2O)c2nc[nH]c(=O)c12", "note": "(configuration not stated)", "values": [{"measurement": "T/C", "setting": "dose: 75.0 mg/kg/injection, schedule: Q01DX001 (ip), vehicle: water", "value": "119 % of control"}]}
{"compound": "O=C(O)c1cccc(F)c1Br", "values": [{"measurement": "T/C", "setting": "[7]", "value": "95 % of control"}, {"measurement": "T/C", "setting": "[8]", "value": "95 % of control"}, {"measurement": "T/C", "setting": "[11]", "value": "87 % of control"}]}
{"compound": "O=[N+]([O-])Nc1ccc(C(c2ccc(N[N+](=O)[O-])cc2)c2ccc([N+](=O)[O-])cc2)cc1", "values": [{"measurement": "T/C", "setting": "[7]", "value": "95 % of control"}, {"measurement": "T/C", "setting": "[8]", "value": "88 % of control"}, {"measurement": "T/C", "setting": "[11]", "value": "88 % of control"}]}
{"compound": "CN(C)C=C1C(=O)NC(=O)NC1=O", "values": [{"measurement": "T/C", "setting": "[4]", "value": "91 % of control"}, {"measurement": "T/C", "setting": "[5]", "value": "87 % of control"}]}
{"compound": "COc1ccccc1N1C(=O)C=CC1=O", "values": [{"measurement": "T/C", "setting": "dose: 5.0 mg/kg/injection, schedule: Q04DX003 (ip), vehicle: saline with Tween-80", "value": "98 % of control"}, {"measurement": "T/C", "setting": "dose: 10.0 mg/kg/injection, schedule: Q04DX003 (ip), vehicle: saline with Tween-80", "value": "100 % of control"}, {"measurement": "T/C", "setting": "dose: 20.0 mg/kg/injection, schedule: Q04DX003 (ip), vehicle: saline with Tween-80", "value": "95 % of control"}]}
{"compound": "OC(CC1(O)C(F)(F)C(F)(F)C1(F)F)c1ccccc1", "note": "(configuration not stated)", "values": [{"measurement": "T/C", "setting": "[1]", "value": "96 % of control"}, {"measurement": "T/C", "setting": "[2]", "value": "92 % of control"}, {"measurement": "T/C", "setting": "[3]", "value": "90 % of control"}]}
{"compound": "OC(COc1ccc(Cl)cc1Cl)COc1ccc(Cl)cc1Cl", "values": [{"measurement": "T/C", "setting": "[1]", "value": "95 % of control"}, {"measurement": "T/C", "setting": "[2]", "value": "92 % of control"}, {"measurement": "T/C", "setting": "[3]", "value": "93 % of control"}]}
{"compound": "Cc1cc(C)c(C(=O)CC(C)C)c(C)c1", "values": [{"measurement": "T/C", "setting": "[4]", "value": "104 % of control"}, {"measurement": "T/C", "setting": "[5]", "value": "104 % of control"}, {"measurement": "T/C", "setting": "[6]", "value": "104 % of control"}]}
{"compound": "O=C(c1ccccc1)C1CCCCC1", "values": [{"measurement": "T/C", "setting": "dose: 100.0 mg/kg/injection, schedule: Q01DX009 (ip), vehicle: saline", "value": "88 % of control"}, {"measurement": "T/C", "setting": "dose: 200.0 mg/kg/injection, schedule: Q01DX009 (ip), vehicle: saline", "value": "97 % of control"}, {"measurement": "T/C", "setting": "dose: 400.0 mg/kg/injection, schedule: Q01DX009 (ip), vehicle: saline", "value": "92 % of control"}]}
{"compound": "NCC(=O)NC(Cc1ccccc1)C(=O)O", "note": "(configuration not stated) (H-Gly-[ξF]-OH)", "values": [{"measurement": "T/C", "setting": "dose: 50.0 mg/kg/injection, schedule: Q01DX009 (ip), vehicle: saline with Tween-80", "value": "102 % of control"}, {"measurement": "T/C", "setting": "[9]", "value": "100 % of control"}, {"measurement": "T/C", "setting": "[10]", "value": "100 % of control"}]}
